The results in this text go back to US20250361214A1, “TRIAZINE LIPIDS, LIPID SYNTHESIS, AND METHODS FOR INHIBITING CANONICAL NFKB TRANSCRIPTIONAL ACTIVITY” (University of Kentucky Research Foundation, priority 2022, published 2025).

Data set [1] is described as follows: Differential scanning calorimetry, transition temperature (Tm) of lipids. It counts as physicochemical. As to conditions: liposomes of pure lipid, 10 mM in 20 mM HEPES, DSC. As to the method:
Differential Scanning calorimetery. The transition temperature (Tm) of the lipids was determined using a multicell differential scanning calorimeter (TA Instruments). Liposomes were made with triazine lipids at a concentration of 10 mM in 20 mM HEPES buffer. These were heated to 60° C. and sonicated until the solution was translucent. For Tm determination, 250 μL of the liposome solution was transferred into reusable hastelloy ampoules while 250 μL of the HEPES solution was transferred to the third ampoule, leaving the reference ampoule empty. […] Data was collected over a range of 10-110° C. at a rate of 2° C. min-1 in a heat-cool-heat cycle. After the run was complete, the CpCalc 2.1 software package was used to convert the raw data into a molar heat capacity and the data from the second heating cycle were processed using Microsoft Excel.
On the technique in general: Differential scanning calorimetry records heat flow against a reference as temperature is scanned.

A further data set has as its system HeLa cells. As to the kind of experiment: Transfection of luciferase plasmid. It counts as cell-based. The following applies: TZ lipid:DOPE 1:1, compared with naked plasmid. As to the method:
Transfection of Luciferase Plasmid and Cell Viability. HeLa cells cultured in EMEM (ATCC) supplemented with 10% fetal bovine serum were transferred to a 96 well plate, in quadruplicate, at a density of 20,000 cells per well and incubated for 24 hours at 37° C. in 5% CO2. Liposomes made with a 1:1 ratio of DOPE and TZ lipid were added to 200 ng pGL3 Luciferase Reporter Vector (Promega) at N:P ratios of 2.5, 5 and 10, and incubated at 37° C. for 10 minutes before being diluted in 100 μL of nonsupplemented EMEM and added to the cells. Following a four hour incubation at 37° C., the media was changed, and the cells were incubated for another twenty hours, at which point the cells were lysed with a cell culture lysis reagent at pH 7.8 composed of 25 mM Tris-phosphate buffer, 0.7 g L^−1 1,2-diaminocyclohexane, 10% glycerol, 1% Triton X-100, and 1% protease inhibitor cocktail (Millipore). Total protein content was determined with a bicinchoninic acid assay (G-Biosciences) and luciferase protein expression was quantified by a luciferase assay (Promega). Cell viability was assessed using a Cell Titer Blue assay kit (Promega) based on the manufacturer's instructions. In each of the three independent experiments performed, transfection was compared with cells treated with Lipofectamine 3000 (Thermo), following the manufacturer's instructions, and with DNA treated cells.

Take `CCCCCCCCCCCCN(CCCCCCCCCCCC)c1nc(NCCCN)nc(NCCCN)n1` [Lipid 3]: in data set [1], the Tm was less than 10 °C. Moreover, in the data set on HeLa cells, the “plasmid transfection (luciferase)” value was “better efficacy than the lipids with C18 tails”.
